# Measured values taken from publication PMC4008261, “Rewiring of regenerated axons by combining treadmill training with semaphorin3A inhibition” (Molecular Brain, 2014).
# How the values were obtained:
# [1] = Stability in a silicone sheet; type: physicochemical; details: compared with SM-216289
# [2] = system: Adhesion, ICAM-1-Mediated; test: Pharmacological profile: cell adhesion; type: cell-based
# Description: (§1) Table 1 Pharmacological profile of SM-345431 (part 1) | column: IC50 (μm)
# [3] = system: Adhesion, VCAM-1-Mediated; test: Pharmacological profile: cell adhesion; type: cell-based
# Description: as §1
# [4] = biological target: Sphingomyelinase, Neutral (N-SMase); test: Pharmacological profile: enzyme inhibition; type: biochemical
# Description: as §1
# [5] = biological target: Matrix Metalloproteinase-7 (MMP-7) (Homo sapiens, UniProt P09237); test: Pharmacological profile: enzyme inhibition; type: biochemical
# Description: as §1
# [6] = biological target: Protein Tyrosine Phosphatase, CD45 (Homo sapiens, UniProt P08575); test: Pharmacological profile: enzyme inhibition; type: biochemical
# Description: as §1
# [7] = biological target: Matrix Metalloproteinase-1 (MMP-1) (Homo sapiens, UniProt P03956); test: Pharmacological profile: enzyme inhibition; type: biochemical
# Description: as §1
# Caspase 7 = Caspase 7 (Homo sapiens, UniProt P55210); test: Pharmacological profile: enzyme inhibition; type: biochemical
# Description: as §1
# Caspase 6 = Caspase 6 (Homo sapiens, UniProt P55212); test: Pharmacological profile: enzyme inhibition; type: biochemical
# Description: as §1
# [8] = biological target: Protein Tyrosine Phosphatase, PTP1C (Homo sapiens, UniProt P29350); test: Pharmacological profile: enzyme inhibition; type: biochemical
# Description: as §1
# [9] = biological target: Protein Tyrosine Phosphatase, PTP1B (Homo sapiens, UniProt P18031); test: Pharmacological profile: enzyme inhibition; type: biochemical
# Description: as §1
# [10] = biological target: Matrix Metalloproteinase-2 (MMP-2) (Homo sapiens, UniProt P08253); test: Pharmacological profile: enzyme inhibition; type: biochemical
# Description: as §1
# Caspase 3 = Caspase 3 (Homo sapiens, UniProt P42574); test: Pharmacological profile: enzyme inhibition; type: biochemical
# Description: as §1
# [11] = biological target: Matrix Metalloproteinase-9 (MMP-9) (Homo sapiens, UniProt P14780); test: Pharmacological profile: enzyme inhibition; type: biochemical
# Description: as §1
# [12] = biological target: Matrix Metalloproteinase-3 (MMP-3) (Homo sapiens, UniProt P08254); test: Pharmacological profile: enzyme inhibition; type: biochemical
# Description: as §1
# Caspase 1 = Caspase 1 (Homo sapiens, UniProt P29466); test: Pharmacological profile: enzyme inhibition; type: biochemical
# Description: as §1
# [13] = biological target: Protein Tyrosine Phosphatase, T-Cell (Homo sapiens, UniProt P17706); test: Pharmacological profile: enzyme inhibition; type: biochemical
# Description: as §1
# Caspase 8 = Caspase 8 (Homo sapiens, UniProt Q14790); test: Pharmacological profile: enzyme inhibition; type: biochemical
# Description: as §1
# Semaphorin = Semaphorin (Homo sapiens, UniProt Q14563); test: Pharmacological profile: semaphorin inhibition; type: cell-based
# Description: In our previous study, we used an osmotic mini-pump to deliver the semaphorin3A inhibitor SM-216289 [20]. However, in clinical practice, this type of invasive drug delivery method is not ideal. Therefore, we developed a novel DDS that utilizes a silicone matrix to continuously deliver SM-345431 (a newly developed semaphorin3A inhibitor) intrathecally. We evaluated the drug release profile of SM-345431 in this new silicone matrix preparation and the potency of SM-345431-mediated semaphorin3A inhibition in vitro (Figure 1). […] When chick embryonic DRG explants and semaphorin3A-expressing COS7 cell aggregates (semaphorin3A-COS) were co-cultured in a collagen gel, the neurites of the DRG explants grew away from the semaphorin3A-COS, as shown in Figure 1B. […] We also evaluated the selectivity of SM-345431 for semaphorin3A inhibition by examining the pharmacological profile of SM-345431 (Tables 1 and 2). […] The release of SM-345431 (0.1 mg/mg loading 10%) in vivo was calculated as 0.5-0.7 μg/day, and this dose was similar to the dose of the semaphorin3A inhibitor (SM-216289) that we administered using osmotic mini pumps in our previous study. […]
# Sequence of Semaphorin (Q14563 21-771): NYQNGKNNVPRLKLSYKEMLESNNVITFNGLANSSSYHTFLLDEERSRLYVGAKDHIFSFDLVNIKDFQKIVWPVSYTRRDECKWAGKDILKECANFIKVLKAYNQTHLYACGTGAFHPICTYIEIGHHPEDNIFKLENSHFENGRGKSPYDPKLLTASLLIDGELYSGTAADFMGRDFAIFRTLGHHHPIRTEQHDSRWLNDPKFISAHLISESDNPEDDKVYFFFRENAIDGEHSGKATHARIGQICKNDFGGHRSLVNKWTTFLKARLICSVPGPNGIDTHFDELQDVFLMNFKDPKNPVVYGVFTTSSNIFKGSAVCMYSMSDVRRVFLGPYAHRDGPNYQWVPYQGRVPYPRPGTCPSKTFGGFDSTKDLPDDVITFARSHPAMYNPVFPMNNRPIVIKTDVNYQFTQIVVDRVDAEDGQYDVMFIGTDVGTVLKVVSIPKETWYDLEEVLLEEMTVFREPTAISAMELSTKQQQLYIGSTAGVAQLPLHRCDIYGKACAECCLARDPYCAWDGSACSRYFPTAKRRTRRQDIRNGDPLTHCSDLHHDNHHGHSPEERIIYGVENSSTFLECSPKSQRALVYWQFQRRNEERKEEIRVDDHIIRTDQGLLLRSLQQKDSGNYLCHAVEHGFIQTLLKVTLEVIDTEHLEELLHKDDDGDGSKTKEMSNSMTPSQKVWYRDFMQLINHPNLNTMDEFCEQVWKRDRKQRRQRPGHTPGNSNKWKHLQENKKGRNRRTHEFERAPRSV
# Sequence of Matrix Metalloproteinase-3 (MMP-3) (P08254 100-477, species assumed): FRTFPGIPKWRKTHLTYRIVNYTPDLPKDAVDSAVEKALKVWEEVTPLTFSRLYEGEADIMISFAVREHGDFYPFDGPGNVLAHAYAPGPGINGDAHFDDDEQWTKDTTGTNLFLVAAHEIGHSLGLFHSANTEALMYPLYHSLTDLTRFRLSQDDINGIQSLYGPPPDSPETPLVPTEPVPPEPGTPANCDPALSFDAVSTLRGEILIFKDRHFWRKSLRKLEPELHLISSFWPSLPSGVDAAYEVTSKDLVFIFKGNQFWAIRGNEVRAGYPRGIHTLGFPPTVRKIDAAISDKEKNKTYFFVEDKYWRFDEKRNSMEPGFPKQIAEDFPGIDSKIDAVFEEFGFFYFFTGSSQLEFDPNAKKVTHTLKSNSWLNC
# Sequence of Protein Tyrosine Phosphatase, PTP1C (P29350 whole entry): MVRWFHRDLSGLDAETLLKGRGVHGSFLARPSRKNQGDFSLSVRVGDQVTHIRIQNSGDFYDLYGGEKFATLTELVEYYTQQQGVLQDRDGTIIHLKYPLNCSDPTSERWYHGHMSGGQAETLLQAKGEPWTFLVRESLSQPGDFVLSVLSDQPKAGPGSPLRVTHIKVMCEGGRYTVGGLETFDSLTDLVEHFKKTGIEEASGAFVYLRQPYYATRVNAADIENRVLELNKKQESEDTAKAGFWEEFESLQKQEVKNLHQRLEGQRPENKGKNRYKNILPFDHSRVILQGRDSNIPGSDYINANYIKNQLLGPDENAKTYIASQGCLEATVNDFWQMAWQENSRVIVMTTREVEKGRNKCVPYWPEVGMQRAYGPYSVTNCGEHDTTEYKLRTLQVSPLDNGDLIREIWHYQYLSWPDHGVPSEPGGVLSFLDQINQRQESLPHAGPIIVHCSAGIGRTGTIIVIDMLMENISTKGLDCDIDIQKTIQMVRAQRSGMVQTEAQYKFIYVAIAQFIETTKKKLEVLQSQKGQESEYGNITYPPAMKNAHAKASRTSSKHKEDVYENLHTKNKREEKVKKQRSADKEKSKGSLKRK
# Sequence of Protein Tyrosine Phosphatase, T-Cell (P17706 whole entry): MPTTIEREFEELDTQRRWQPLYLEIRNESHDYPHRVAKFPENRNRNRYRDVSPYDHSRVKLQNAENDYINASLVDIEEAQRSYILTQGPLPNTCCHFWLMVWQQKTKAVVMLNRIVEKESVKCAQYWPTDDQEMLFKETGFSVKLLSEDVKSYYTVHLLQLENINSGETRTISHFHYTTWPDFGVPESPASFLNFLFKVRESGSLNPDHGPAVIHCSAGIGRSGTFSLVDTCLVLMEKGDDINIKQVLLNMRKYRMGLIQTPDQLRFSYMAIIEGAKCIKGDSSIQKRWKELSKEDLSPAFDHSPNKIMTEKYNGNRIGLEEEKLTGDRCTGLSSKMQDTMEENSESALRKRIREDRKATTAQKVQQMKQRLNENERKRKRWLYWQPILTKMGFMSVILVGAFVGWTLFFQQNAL
# Sequence of Matrix Metalloproteinase-1 (MMP-1) (P03956 100-469, species assumed): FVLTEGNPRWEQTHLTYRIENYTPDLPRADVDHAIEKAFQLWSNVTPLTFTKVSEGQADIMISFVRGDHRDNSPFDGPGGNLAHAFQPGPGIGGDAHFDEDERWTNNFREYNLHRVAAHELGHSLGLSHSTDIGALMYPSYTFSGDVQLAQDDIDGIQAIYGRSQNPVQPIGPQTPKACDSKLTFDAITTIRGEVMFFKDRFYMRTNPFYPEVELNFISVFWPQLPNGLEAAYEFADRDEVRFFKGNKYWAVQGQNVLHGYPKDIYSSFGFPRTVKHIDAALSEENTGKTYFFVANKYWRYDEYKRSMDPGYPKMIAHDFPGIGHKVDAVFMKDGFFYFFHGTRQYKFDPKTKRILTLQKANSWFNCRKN
# Sequence of Protein Tyrosine Phosphatase, PTP1B (P18031 whole entry): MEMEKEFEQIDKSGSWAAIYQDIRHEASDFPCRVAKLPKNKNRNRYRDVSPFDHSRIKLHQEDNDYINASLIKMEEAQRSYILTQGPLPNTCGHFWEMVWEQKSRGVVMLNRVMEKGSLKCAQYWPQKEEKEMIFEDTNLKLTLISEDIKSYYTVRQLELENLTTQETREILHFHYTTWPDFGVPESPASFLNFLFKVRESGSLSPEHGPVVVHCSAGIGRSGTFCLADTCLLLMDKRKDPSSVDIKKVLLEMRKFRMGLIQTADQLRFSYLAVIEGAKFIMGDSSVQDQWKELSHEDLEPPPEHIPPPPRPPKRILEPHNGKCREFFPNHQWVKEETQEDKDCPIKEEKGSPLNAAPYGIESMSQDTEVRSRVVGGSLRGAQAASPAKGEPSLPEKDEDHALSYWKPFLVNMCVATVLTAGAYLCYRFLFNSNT
# Sequence of Caspase 7 (P55210 24-198 limits assumed, species assumed): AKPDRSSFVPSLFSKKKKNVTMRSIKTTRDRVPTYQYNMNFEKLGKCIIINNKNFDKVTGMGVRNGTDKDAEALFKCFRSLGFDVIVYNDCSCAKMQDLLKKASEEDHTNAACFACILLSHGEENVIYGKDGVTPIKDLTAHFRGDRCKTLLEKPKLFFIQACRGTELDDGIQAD
# Sequence of Caspase 7 (P55210 207-303 limits assumed, species assumed): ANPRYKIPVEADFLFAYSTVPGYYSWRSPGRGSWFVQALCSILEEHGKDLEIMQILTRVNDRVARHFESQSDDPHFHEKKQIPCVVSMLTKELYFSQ
# Sequence of Protein Tyrosine Phosphatase, CD45 (P08575 26-1306): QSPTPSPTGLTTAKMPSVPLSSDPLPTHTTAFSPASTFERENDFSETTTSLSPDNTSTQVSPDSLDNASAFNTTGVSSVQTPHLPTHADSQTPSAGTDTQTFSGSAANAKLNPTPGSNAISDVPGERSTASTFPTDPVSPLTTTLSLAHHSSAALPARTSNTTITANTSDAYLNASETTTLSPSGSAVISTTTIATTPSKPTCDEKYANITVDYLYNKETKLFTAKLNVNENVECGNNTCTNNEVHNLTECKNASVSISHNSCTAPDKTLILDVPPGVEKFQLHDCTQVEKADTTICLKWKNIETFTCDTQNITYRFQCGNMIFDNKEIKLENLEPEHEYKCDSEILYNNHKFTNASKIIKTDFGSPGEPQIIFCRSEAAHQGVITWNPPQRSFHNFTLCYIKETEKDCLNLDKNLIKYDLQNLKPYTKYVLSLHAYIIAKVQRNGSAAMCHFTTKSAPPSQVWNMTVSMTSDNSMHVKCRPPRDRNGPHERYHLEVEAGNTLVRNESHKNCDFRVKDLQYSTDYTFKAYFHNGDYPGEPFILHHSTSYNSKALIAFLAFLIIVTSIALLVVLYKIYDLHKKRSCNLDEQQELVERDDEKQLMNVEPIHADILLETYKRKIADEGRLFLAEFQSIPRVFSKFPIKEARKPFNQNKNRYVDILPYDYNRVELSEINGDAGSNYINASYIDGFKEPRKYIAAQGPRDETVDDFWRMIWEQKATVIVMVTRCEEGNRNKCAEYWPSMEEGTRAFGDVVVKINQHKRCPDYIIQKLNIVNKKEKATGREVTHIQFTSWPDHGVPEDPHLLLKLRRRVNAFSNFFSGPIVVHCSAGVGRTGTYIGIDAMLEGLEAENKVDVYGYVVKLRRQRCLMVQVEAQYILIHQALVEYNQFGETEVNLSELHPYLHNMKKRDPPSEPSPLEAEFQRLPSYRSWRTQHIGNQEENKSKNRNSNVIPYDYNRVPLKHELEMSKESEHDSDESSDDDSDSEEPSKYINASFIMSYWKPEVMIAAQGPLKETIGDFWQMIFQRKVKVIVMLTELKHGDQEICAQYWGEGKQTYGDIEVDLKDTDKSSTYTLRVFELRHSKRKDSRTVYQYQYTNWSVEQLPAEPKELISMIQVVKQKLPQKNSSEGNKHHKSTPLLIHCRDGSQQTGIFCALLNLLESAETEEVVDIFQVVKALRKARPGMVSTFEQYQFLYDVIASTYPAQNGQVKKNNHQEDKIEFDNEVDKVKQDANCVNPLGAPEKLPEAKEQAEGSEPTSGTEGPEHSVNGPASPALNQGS
# Sequence of Matrix Metalloproteinase-7 (MMP-7) (P09237 95-267, species assumed): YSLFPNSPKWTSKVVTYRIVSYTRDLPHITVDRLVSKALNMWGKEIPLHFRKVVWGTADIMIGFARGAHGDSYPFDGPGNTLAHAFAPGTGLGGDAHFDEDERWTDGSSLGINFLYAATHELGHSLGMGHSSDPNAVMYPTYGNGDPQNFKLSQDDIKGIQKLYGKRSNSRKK
# Sequence of Caspase 8 (Q14790 217-374 limits assumed, species assumed): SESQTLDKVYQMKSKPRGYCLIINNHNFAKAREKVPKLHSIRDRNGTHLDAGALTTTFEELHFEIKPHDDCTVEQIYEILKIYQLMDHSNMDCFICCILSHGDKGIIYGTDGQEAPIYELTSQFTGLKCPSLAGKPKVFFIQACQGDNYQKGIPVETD
# Sequence of Caspase 8 (Q14790 385-479 limits assumed, species assumed): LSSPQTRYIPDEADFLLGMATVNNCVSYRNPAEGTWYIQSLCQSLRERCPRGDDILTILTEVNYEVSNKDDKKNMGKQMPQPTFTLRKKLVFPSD
compound,measurement,setting,value
"CC(=O)c1cc2c(=O)c3c(C(=O)O)c(O)c(O)cc3oc2c(C(C)=O)c1-c1coc2cc(O)c(O)c(C(=O)O)c2c1=O [SM-345431, Vinaxanthone]",stability in a silicone sheet,[1],better stability in a silicone sheet than SM-216289
same,IC50,[2],> 10 µM
same,IC50,[3],> 10 µM
same,IC50,[4],> 10 µM
same,IC50,[5],10 µM
same,IC50,[6],> 10 µM
same,IC50,[7],> 10 µM
same,IC50,Caspase 7,> 10 µM
same,IC50,Caspase 6,> 10 µM
same,IC50,[8],> 10 µM
same,IC50,[9],> 10 µM
same,IC50,[10],> 10 µM
same,IC50,Caspase 3,> 10 µM
same,IC50,[11],> 10 µM
same,IC50,[12],> 10 µM
same,IC50,Caspase 1,> 10 µM
same,IC50,[13],> 10 µM
same,IC50,Caspase 8,> 10 µM
same,IC50,Semaphorin,0.1 to 0.2 µM
same,semaphorin3A inhibitory activity compared with SM-216289,Semaphorin,approximately the same semaphorin3A inhibitory activity as SM-216289
